# Results from US8962691B2, “Retinoid replacements and opsin agonists and methods for the use thereof” (University of Washington, priority 2003, dated 2015).
# Experiments:
# Rpe65−/− mice [1] = test: Analyses of retinoids and visual pigments in eyes of Rpe65−/− mice given 9-cis-retinal; assay type: in vivo, mouse
# Experimental: All of the procedures were performed under dim red light as described previously (Van Hooser et al., Proc. Natl. Acad. Sci. USA 97:8623-28 (2000); Jang et al., J. Biol. Chem. 276:32456-65 (2001); Palczewski et al., Biochemistry 38:12012-19 (1999)). In addition to previously described methods, retinoid analysis was performed on an HP 1100 series high pressure liquid chromatograph (HPLC) equipped with a diode array detector and HP Chemstation A.07.01 software, allowing identification of retinoid isomers according to their specific retention time and absorption maxima. A normal phase column (Beckman Ultrasphere Si 5μ, 4.6×250 mm) and an isocratic solvent system of 0.5% ethyl acetate in hexane (v/v) for 15 minutes followed by 4% ethyl acetate in hexane for 60 minutes at a flow rate of 1.4 ml/minute at 20° C. (total 75 min) with detection at 325 nm allowed the separation of 11-cis-, 13-cis-, and all-trans-retinyl esters. In addition, all of the study procedures related to the analysis of dissected mouse eyes, derivatization, and separation of retinoids have been described previously in detail (Van Hooser et al., Proc. Natl. Acad. Sci. USA 97:8623-28 (2000)). Rhodopsin and iso-rhodopsin measurements were performed as described previously (Palczewski et al., Biochemistry 38:12012-19 (1999)). Typically, two mouse eyes were used per assay, and the assays were repeated three to six times. The data are presented with S.E.M.
# (§1) Oral gavage was carried out as described previously (Van Hooser et al., Proc. Natl. Acad. Sci. USA 97:8623-28 (2000)).
# (§2) The chemicals were purchased from Sigma/Aldrich unless otherwise specified. Solution A contained 10 mg of 9-cis-retinal, 75 mg of Cremophor EL, 1 mg of α-tocopherol, and 0.6 mg of benzoic acid suspended in 1 ml of lactated Ringer's solution (Baxter). The mixture was vortexed for 10 minutes and centrifuged for 10 minutes at 20,000×g, and the concentration of 9-cis-retinal (7.7 mM) was determined spectrophotometrically. Solution B contained 13 mg of 9-cis-retinal, 50 mg of Cremophor EL, 10 mg of dipalmitoylphosphatidyl choline, and 40 mg of 2-hydroxypropyl-β-cyclodextrin suspended in 1 ml of lactated Ringer's solution (Baxter). The mixture was vortexed for 10 minutes and centrifuged for 10 minutes at 20,000×g, and the concentration of 9-cis-retinal (10 mM) was determined spectrophotometrically. Solutions A and B (typically, 100 μl) were delivered to the mouse lateral tail vein employing a 1-ml syringe equipped with a 27-gauge needle and a restraint tube.
# rods from Rpe65−/− mice = test: Single cell recordings of isolated rods; assay type: in vivo, mouse
# Experimental: Mice were dark-reared from birth and sacrificed via cervical dislocation, and the eyes were removed. The retina was isolated and stored on ice for up to 12 hours in HEPES-buffered Ames' solution (10 mM HEPES, pH adjusted to 7.4 with NaOH). Isolated rods were obtained by shredding a small piece of retina (roughly 1 mm^2) with fine needles in a 160-μl drop of solution. The drop was then injected into a recording chamber mounted on the stage of an inverted microscope (Nikon Eclipse) equipped with an infrared video viewing system and continuously superfused at 2-3 ml/minute with bicarbonate-buffered Ames' solution warmed to 37° C. (pH 7.4 when equilibrated with 5% CO2, 95% O2). The entire dissection was carried out under infrared illumination using a dissecting microscope equipped with infrared-visible image converters.
# An isolated rod was drawn by suction into a heat-polished, silanized borosilicate electrode with an opening 1.2-1.5 μm in diameter. The electrode was filled with HEPES-buffered Ames' solution. The electrical connections to the bath and suction electrode were made by NaCl-filled agar bridges that contacted calomel half-cells. Bath voltage was held at ground by an active clamp circuit (Baylor et al. J. Physiol. 354:203-23 (1984)). Membrane current collected by the suction electrode was amplified by an Axopatch 200A patch clamp amplifier (Axon Instruments, Foster City, Calif.), filtered at 30 Hz (3 dB point) with an 8-pole Bessel low pass filter, and digitized at 1 kHz.
# Light from light-emitting diodes with peak outputs at 470, 570, and 640 nm were combined using a trifurcated fiber optic and focused on the preparation using a water immersion lens in place of the microscope condensor. The light stimulus was spatially uniform and illuminated a circular area 0.57 mm in diameter centered on the recorded cell. Light intensities were measured at the preparation and converted to equivalent 500-nm photons (max for rod sensitivity) using the absorption spectrum of rhodopsin and the measured light-emitting diode spectrum.
# [2] = Retinal in blood circulation after intravenous injection or gavage; assay type: in vivo, mouse; settings: for t1/2 in the circulation: intravenous injection
# Experimental: as §1, §2
# Rpe65−/− mice [3] = test: Mouse flicker electroretinograms; assay type: in vivo
# Experimental: Mice were dark-reared from birth and anesthetized (ketaject/xylaject, 65 mg/kg intraperitoneally), and the pupils were dilated with tropicamide (1%). […] The mice were placed in a Ganzfield chamber, and flicker recordings were obtained from one eye.
# Rpe65−/− mice [4] = settings: mouse, in vivo
# Experimental: Mice were anesthetized by intraperitoneal injection with 15 μl/g body weight of 6 mg/ml ketamine and 0.44 mg/ml xylazine diluted with 10 mM phosphate buffer, pH 7.2, containing 100 mM NaCl. The pupils were dilated with 1% tropicamide. A contact lens electrode was placed on the eye with a drop of methylcellulose, and a ground electrode (a reference electrode) was placed in the ear. ERGs were recorded with the universal testing and electrophysiologic system 3000 (UTAS E-3000) (LKC Technologies, Inc.). The mice were placed in a Ganzfield chamber, and responses to flash stimuli were obtained from both eyes simultaneously. […] Two to four recordings were made with >10-second intervals. Typically, 4-8 animals were used for recording of each point in all conditions. All ERG measurements were done within 10-40 minutes after anesthesia.
compound,measurement,setting,value
CC1=C(/C=C/C(C)=C\C=C\C(C)=C\C=O)C(C)(C)CCC1 [9-cis-retinal],axial density of iso-rhodopsin as share of rhodopsin in Rpe65+/+ rods,Rpe65−/− mice [1]; 0.25 mg,16%
same,free opsin as share of total available pigment,Rpe65−/− mice [1]; 0.25 mg,72%
same,axial density of iso-rhodopsin as share of rhodopsin in Rpe65+/+ rods,Rpe65−/− mice [1]; 1.25 mg,21%
same,free opsin as share of total available pigment,Rpe65−/− mice [1]; 1.25 mg,63%
same,amount of iso-rhodopsin,Rpe65−/− mice [1]; 2.5 mg,300 pmol
same,free opsin in rods,Rpe65−/− mice [1]; 2.5 mg,no free opsin
same,iso-rhodopsin as share of rhodopsin in Rpe65+/+ rods,Rpe65−/− mice [1]; 2.5 mg,about 57%
same,number of iso-rhodopsin molecules in rods,Rpe65−/− mice [1]; 2.5 mg,about 1.2×10^7
same,iso-rhodopsin formed,Rpe65−/− mice [1]; 2.5 mg dose gavage,300±25 pmol of iso-rhodopsin/eye
same,iso-rhodopsin and 9-cis-retinyl esters after flashes,"Rpe65−/− mice [1]; 2.5 mg, after 48 hour more than three intense flashes at 1-hour intervals",significantly depleted
same,retinyl esters from liver and RPE after flashes,"Rpe65−/− mice [1]; 2.5 mg, five flashes at 24-hour intervals",completely depleted
same,all-trans-retinyl ester accumulation,Rpe65−/− mice [1]; 0.25-mg dose every other day from PND 7 until 30 days old,dramatic change in the ester accumulation
same,iso-rhodopsin formed,Rpe65−/− mice [1]; 0.25-mg dose gavage,85.6±6.2 pmol/eye
same,iso-rhodopsin formed,Rpe65−/− mice [1]; 1.25-mg dose gavage,109.8 pmol of iso-rhodopsin/eye
same,decrease of iso-rhodopsin with age,Rpe65−/− mice [1]; 6-month-old (FIG. 2B) compared with FIG. 2A,50%
same,reduction of ester levels compared with untreated animals,"Rpe65−/− mice [1]; 6 month-old Rpe65−/− mice treated twice, 2.5 mg/dose",> 50%
same,iso-rhodopsin levels between dosing regimens,"Rpe65−/− mice [1]; 6 month-old mice, 2.5 mg/dose twice at PND 30 and 34, 30 and 120, or 30 and 150",comparable
same,pigment deficit of Rpe65−/− rods relative to Rpe65+/+,Rpe65−/− mice [1]; 48 hours after treatment,approximately 40%
same,time rod photopigment is produced and maintained,Rpe65−/− mice [1]; Rpe65−/− mice in the dark,more than 6 months
same,overall amounts of all-trans-retinyl esters,Rpe65−/− mice [1]; continued administration of 1 dose (1.25 mg) per week after early treatment,dramatically suppressed
same,accumulation of 9-cis-retinyl esters in the liver or RPE,"Rpe65−/− mice [1]; intravenous injection, addition of cyclodextrin",higher accumulation
same,iso-rhodopsin production,"Rpe65−/− mice [1]; intravenous injection, with and without cyclodextrins",produced iso-rhodopsin
same,depletion of retinal (iso-rhodopsin level),"Rpe65−/− mice [1]; single 2.5 mg dose at 1 month, 12-hour light/dark cycle or 24 hour dark for 37 days",No appreciable depletion of retinal
same,removal of accumulated esters in the RPE,Rpe65−/− mice [1]; treatment began after more than 1 month of age,not removed
same,factor of increase of half-saturating flash intensity over Rpe65+/+ rods,rods from Rpe65−/− mice; 0.25 mg,131
same,further desensitization of rods,rods from Rpe65−/− mice; 0.25 mg,6.8 fold
same,light-sensitive dark current of rods,rods from Rpe65−/− mice; 0.25 mg,3.6±0.9 pA
same,factor of increase of half-saturating flash intensity over Rpe65+/+ rods,rods from Rpe65−/− mice; 1.25 mg,66
same,further desensitization of rods,rods from Rpe65−/− mice; 1.25 mg,4.5 fold
same,dim flash response kinetics vs Rpe65+/+,rods from Rpe65−/− mice; 2.5 mg,essentially the same kinetics
same,factor of increase of half-saturating flash intensity over Rpe65+/+ rods,rods from Rpe65−/− mice; 2.5 mg,6
same,increase in half-saturating flash strength compared with rods of Rpe65+/+,rods from Rpe65−/− mice; 2.5 mg,6 fold
same,rod dark current,rods from Rpe65−/− mice; 2.5 mg,essentially the same as Rpe65+/+
same,dim flash response time-to-peak and recovery times,rods from Rpe65−/− mice; 1.25 or 0.25 mg,substantially faster than those of Rpe65+/+
same,half-saturating flash intensity I0,rods from Rpe65−/− mice; Rpe65−/− mice treated with 0.25 mg of 9-cis-retinal,3929 equivalent 500 nm photons/μm^2
same,half-saturating flash intensity I0,rods from Rpe65−/− mice; Rpe65−/− mice treated with 1.25 mg of 9-cis-retinal,1995 equivalent 500 nm photons/μm^2
same,half-saturating flash intensity I0,rods from Rpe65−/− mice; Rpe65−/− mice treated with 2.5 mg of 9-cis-retinal,164 equivalent 500 nm photons/μm^2
same,presence of retinal in the bloodstream,[2]; gavage,greater than 48 hours
same,t1/2 in the circulation,[2]; in the presence of cyclodextrins,23 h
same,t1/2 in the circulation,[2]; without cyclodextrins,12 h
same,time rod retinal function is supported post-treatment,"Rpe65−/− mice [3]; early intervention, Rpe65−/− mice",more than 6 months
same,gain in ERG sensitivity over untreated mice,Rpe65−/− mice [3]; eight weeks after single 2.5 mg,2.1 logarithmic units
same,flicker ERG peak amplitude,"Rpe65−/− mice [3]; eight weeks after single 2.5 mg, at 0.059 cd·s/m^2",137.3±24.4 μV
same,flicker ERG peak amplitude,"Rpe65−/− mice [3]; eight weeks after single 2.5 mg, at 13 cd·s/m^2",40.0±7.1 μV
same,persistence of partial recovery of ERG sensitivity,Rpe65−/− mice [3]; treated once at PND 30,more than 12 weeks
same,ERG activity (a- and b-wave) compared with Me2SO,Rpe65−/− mice [4],significantly increased sensitivity
